Assay [1] has as its system BMSC (primary human bone marrow mesenchymal stromal cells). In words: absolute EC50 for viability; higher = less sensitive.
For assay [2] the test system is unchanged. Put plainly: drug sensitivity score (DSS); higher = more sensitive.

The structures appear in SMILES notation.

For `CC(C)(C)C[C@@H]1N[C@@H](C(=O)N[C@H]2CC[C@H](O)CC2)[C@H](c2cccc(Cl)c2F)[C@]12C(=O)Nc1cc(Cl)ccc12`, the “absolute EC50 for viability” value in assay [1] stood at 2490 nM. In assay [2], this compound returned a drug sensitivity score of 10.5.

For `CCOc1ccn(-c2ccc(F)cc2)c(=O)c1C(=O)Nc1ccc(Oc2ccnc(N)c2Cl)c(F)c1`, in assay [1], the “absolute EC50 for viability” value was more than 2500 nM. In assay [2], the drug sensitivity score stood at 0.

As for `CCc1cncnc1N1CCN(Cc2nc3ccc(C(F)(F)F)cc3[nH]2)CC1`, the “absolute EC50 for viability” value in assay [1] was more than 10000 nM. The compound also displayed a drug sensitivity score in assay [2] of 1.

As for `CCn1c(-c2nonc2N)nc2cnc(Oc3cccc(NC(=O)c4ccc(OCCN5CCOCC5)cc4)c3)cc21`, in assay [1], the “absolute EC50 for viability” value was more than 10000 nM. The drug sensitivity score in assay [2] came out at 7.3.

Regarding `CN(C)CC#Cc1ccc(OCCCc2sc(N3CCc4cccc(C(=O)Nc5nc6ccccc6s5)c4C3)nc2C(=O)O)c(F)c1`, in assay [1], the “absolute EC50 for viability” value is more than 10000 nM. Moreover, the drug sensitivity score in assay [2] is 0.

`CN1CCN(C2CCC(n3cc(-c4ccc(Oc5ccccc5)cc4)c4c(N)ncnc43)CC2)CC1` (centres undefined): in assay [1], the “absolute EC50 for viability” value stood at 1000 nM. Further, in assay [2], the drug sensitivity score was determined as 11.1.

In the case of `CNC(=O)c1ccc(C)c(-n2c(C)cc(OCc3ccc(F)cc3F)c(Br)c2=O)c1`, the “absolute EC50 for viability” value in assay [1] was more than 1000 nM. This compound registered a drug sensitivity score in assay [2] of 0.

For the compound `CNC(=O)c1ccccc1Nc1nc(Nc2ccc3c(c2OC)CCC[C@H](N2CCN(CCO)CC2)C3)ncc1Cl`, the “absolute EC50 for viability” value in assay [1] is 1170 nM. In addition, the drug sensitivity score in assay [2] worked out at 6.6.

`CNS(=O)(=O)Nc1nccc(Cc2c(C)c3ccc(Oc4ncccn4)cc3oc2=O)c1F`: in assay [1], the “absolute EC50 for viability” value was more than 1000 nM. In addition, in assay [2], the drug sensitivity score was 0.

`CNc1nc(-c2ccc3c(N)n[nH]c3c2)cc(N2C[C@@H](C(=O)NC3CCCCC3)CC[C@H]2C)n1`: the “absolute EC50 for viability” value in assay [1] is more than 10000 nM. This compound also had a drug sensitivity score in assay [2] of 5.4.

Turning to `CO[C@@H](C)Cn1c(=O)n(C)c2cnc3ccc(-c4cncc(C(C)(C)O)c4)cc3c21`, the “absolute EC50 for viability” value in assay [1] came to 257 nM. This compound also had a drug sensitivity score in assay [2] of 10.5.

As for `COc1cc2ncnc(Oc3cccc(NC(=O)Nc4cc(C(C)(C)C(F)(F)F)on4)c3)c2cc1OC`, the “absolute EC50 for viability” value in assay [1] is more than 10000 nM. The compound further returned a drug sensitivity score in assay [2] of 4.6.

Consider `C[C@@H](Oc1cc(-n2cnc3ccc(CN4CCN(C)CC4)cc32)sc1C(N)=O)c1ccccc1C(F)(F)F`, for which, in assay [1], the “absolute EC50 for viability” value turned out to be 1890 nM. The drug sensitivity score in assay [2] came out at 8.

For `C[C@H]1C[C@@H](n2c(Nc3ccc(OC(F)(F)F)cc3)nc3cc(CCC(=O)O)ccc32)CC(C)(C)C1`, the “absolute EC50 for viability” value in assay [1] was more than 10000 nM. Moreover, the drug sensitivity score in assay [2] is 0.

Take `Cc1c(-c2c(-c3ccc(F)o3)sc3ncnc(O[C@H](Cc4ccccc4OCc4ccnn4CC(F)(F)F)C(=O)O)c23)ccc(OCCN2CCN(C)CC2)c1Cl`: in assay [1], the “absolute EC50 for viability” value is more than 1000 nM. Further, the drug sensitivity score in assay [2] came out at 0.

As to `Cc1c(-c2ccc(N3CCc4cccc(C(=O)Nc5nc6ccccc6s5)c4C3)nc2C(=O)O)cnn1CC12CC3CC(CC(C3)C1)C2`, in assay [1], the “absolute EC50 for viability” value was more than 1000 nM. For the same compound, the drug sensitivity score in assay [2] stood at 0.

With `Cc1ccc(C(=O)N(CCCN)[C@@H](c2oc3cc(Cl)ccc3c(=O)c2Cc2ccccc2)C(C)C)cc1`, in assay [1], the “absolute EC50 for viability” value was more than 100 nM. Besides, the drug sensitivity score in assay [2] worked out at 0.

Consider `Cc1nc(Nc2n[nH]c3c2CN(C(=O)N[C@H](CN(C)C)c2ccccc2)C3(C)C)c2sccc2n1`, for which the “absolute EC50 for viability” value in assay [1] was determined as 2860 nM. For the same compound, in assay [2], the drug sensitivity score turned out to be 7.4.

As for `Cc1ncc(Cl)cc1NCc1ccc(C(=O)N[C@@H](CC2CCCC2)C(=O)NC2CC2)s1`, the “absolute EC50 for viability” value in assay [1] is more than 5000 nM. In assay [2], this compound came in with a drug sensitivity score of 0.

Consider `Cn1cc(-c2ccc(F)c(C(F)(F)F)c2)nc1C1CCN(c2ncnc3[nH]ncc23)CC1`, for which the “absolute EC50 for viability” value in assay [1] is more than 10000 nM. Also, the drug sensitivity score in assay [2] was 0.

On to `Cn1cc(C2=Nc3cc(NC(=O)C(N)C4CCCCC4)cc4c3C2=CNNC4=O)cn1` (centres undefined), for which, in assay [1], the “absolute EC50 for viability” value was 1430 nM. Also, in assay [2], the drug sensitivity score was found to be 9.2.

As to `N#Cc1ccc(COC[C@H]2O[C@@H](n3c(NCc4ccc(Cl)c(Cl)c4)nc4c(N)ncnc43)[C@H](O)[C@@H]2O)cc1`, the “absolute EC50 for viability” value in assay [1] is more than 10000 nM. In assay [2], this compound displayed a drug sensitivity score of 2.2.

`O=C(NC[C@H](O)CN1CCc2ccccc2C1)c1cc(NC2COC2)ncn1`: in assay [1], the “absolute EC50 for viability” value was more than 10000 nM. The compound further came in with a drug sensitivity score in assay [2] of 0.

As for `O=C(O)c1ccc(-c2c[nH]c3ncc(-c4ccccc4)cc23)cc1C1CCCC1`, in assay [1], the “absolute EC50 for viability” value was more than 10000 nM. The same compound displayed a drug sensitivity score in assay [2] of 0.7.

For `O=C(O)c1ccc(CN2CCC(CN[C@@H]3C[C@H]3c3ccccc3)CC2)cc1`, the “absolute EC50 for viability” value in assay [1] was more than 100000 nM. The compound also registered a drug sensitivity score in assay [2] of 0.

For the compound `O=C1Cc2cc(C(=O)NC3C[C@H]4CC[C@@H](C3)N4S(=O)(=O)CC3CCN(CCCC(F)(F)F)CC3)c(Cl)cc2N1` (some centres undefined), the “absolute EC50 for viability” value in assay [1] is more than 10000 nM. Also, in assay [2], the drug sensitivity score worked out at 0.

As to `O=c1[nH]c(C2CCCN2)nc2c1oc1ccc(Cl)cc12` (centres undefined), in assay [1], the “absolute EC50 for viability” value is more than 10000 nM. In assay [2], this compound had a drug sensitivity score of 0.6.

With `COc1ccc(C[C@H](NC(=O)[C@H](C)NC(=O)CN2CCOCC2)C(=O)N[C@@H](Cc2ccccc2)C(=O)C2(C)CO2)cc1` (stereo in doubt) [ONX-0914], the “absolute EC50 for viability” value in assay [1] was 391 nM. In addition, the drug sensitivity score in assay [2] was 16.1.

For the compound `Cn1cc(C[C@@H](N)C(=O)O)c2ccccc21` [1-methyl-D-tryptophan], in assay [1], the “absolute EC50 for viability” value is more than 5000 nM. This compound returned a drug sensitivity score in assay [2] of 0.

With `CC/C(=C(\c1ccc(O)cc1)c1ccc(OCCN(C)C)cc1)c1ccccc1` [4-hydroxytamoxifen], the “absolute EC50 for viability” value in assay [1] is 9930 nM. In addition, in assay [2], the drug sensitivity score turned out to be 0.

As for `Nc1ncnc2c1nc(N)n2[C@@H]1O[C@H](CO)[C@@H](O)[C@H]1O` [8-amino-adenosine], the “absolute EC50 for viability” value in assay [1] was determined as 803 nM. The compound also had a drug sensitivity score in assay [2] of 21.5.

Regarding `Nc1ncnc2c1nc(Cl)n2[C@@H]1O[C@H](CO)[C@@H](O)[C@H]1O` [8-chloro-adenosine], the “absolute EC50 for viability” value in assay [1] is 5350 nM. This compound also yielded a drug sensitivity score in assay [2] of 10.9.

Take `COc1cc2c(cc1OCCCN1CCCC1)N=C(N)C21CCC1` [A-366]: the “absolute EC50 for viability” value in assay [1] was more than 25000 nM. Also, in assay [2], the drug sensitivity score stood at 2.8.

With `COc1ccc(S(=O)(=O)Nc2cccnc2Nc2ccc(O)cc2)cc1` [ABT-751], in assay [1], the “absolute EC50 for viability” value was more than 10000 nM. In addition, in assay [2], the drug sensitivity score was 5.5.

Take `C[C@H](Nc1ncnc2[nH]cnc12)c1cc2ccc(F)cc2nc1-c1ccccn1` [AMG319]: the “absolute EC50 for viability” value in assay [1] is more than 1000 nM. Further, the drug sensitivity score in assay [2] came to 0.1.

On to `CC(C)[C@@H](CS(=O)(=O)C(C)C)N1C(=O)[C@@](C)(CC(=O)O)C[C@H](c2cccc(Cl)c2)[C@H]1c1ccc(Cl)cc1` [AMG-232], for which the “absolute EC50 for viability” value in assay [1] was 186 nM. The same compound yielded a drug sensitivity score in assay [2] of 18.7.

As to `COCCOc1cnc2ccn([C@H](C)c3nnc4c(F)cc(-c5cnn(C)c5)cn34)c(=O)c2c1` [AMG-337], the “absolute EC50 for viability” value in assay [1] worked out at 9930 nM. Moreover, the drug sensitivity score in assay [2] came out at 0.

Turning to `CC1CCC(n2c3cnccc3c3cnc(Nc4ccc5c(n4)CCN(C(=O)CO)C5)nc32)CC1` (centres undefined) [AMG-925], the “absolute EC50 for viability” value in assay [1] is more than 1000 nM. For the same compound, the drug sensitivity score in assay [2] was found to be 0.

As for `COCC1(CO)C(=O)C2CCN1CC2` (centres undefined) [APR-246], the “absolute EC50 for viability” value in assay [1] is more than 10000 nM. In assay [2], this compound returned a drug sensitivity score of 0.

For `CC(C)[C@H](C(=O)Nc1ccc(C(=O)NO)cc1)c1ccccc1` [AR-42], in assay [1], the “absolute EC50 for viability” value was 1940 nM. In assay [2], this compound gave a drug sensitivity score of 7.5.

With `Cc1sc2c(c1C)C(c1ccc(Cl)cc1)=N[C@@H](CC(=O)Nc1ccc(OCCOCCOCCOCCNc3cccc4c3C(=O)N(C3CCC(=O)NC3=O)C4=O)cc1)c1nnc(C)n1-2` (some centres undefined) [ARV-825], the “absolute EC50 for viability” value in assay [1] stood at 36 nM. In assay [2], this compound gave a drug sensitivity score of 10.1.

On to `COc1cc(N2CCC(N3CCN(C)CC3)CC2)ccc1Nc1ncnc(Nc2ccccc2S(=O)(=O)C(C)C)n1` [ASP3026], for which the “absolute EC50 for viability” value in assay [1] worked out at 2290 nM. This compound also registered a drug sensitivity score in assay [2] of 6.5.

Consider `O=C(NC1CCNCC1)c1n[nH]cc1NC(=O)c1c(Cl)cccc1Cl` [AT7519], for which the “absolute EC50 for viability” value in assay [1] turned out to be 462 nM. The drug sensitivity score in assay [2] was 12.2.

On to `O=C(Nc1c[nH]nc1-c1nc2ccc(CN3CCOCC3)cc2[nH]1)NC1CC1` [AT9283], for which the “absolute EC50 for viability” value in assay [1] turned out to be 254 nM. This compound had a drug sensitivity score in assay [2] of 6.

For the compound `Cc1cc2c(C(C)C)c(O)c(O)c(C=O)c2c(O)c1-c1c(C)cc2c(C(C)C)c(O)c(O)c(C=O)c2c1O` [AT 101], in assay [1], the “absolute EC50 for viability” value amounted to 28100 nM. In assay [2], the drug sensitivity score was found to be 6.1.

With `CN[C@@H](C)C(=O)N[C@H]1CN(C(=O)CC(C)C)CC[C@H]2CC[C@@H](C(=O)NC(c3ccccc3)c3ccccc3)N2C1=O` [AT-406], the “absolute EC50 for viability” value in assay [1] was more than 10000 nM. Further, in assay [2], the drug sensitivity score came out at 0.

For `CC[C@H](CC#N)OC(=O)N[C@@H](C)c1cccc(NC(=O)Nc2ccc(-c3cnco3)c(OC)c2)c1` [AVN944], the “absolute EC50 for viability” value in assay [1] was more than 10000 nM. Further, the drug sensitivity score in assay [2] worked out at 3.9.

On to `COc1cc(N2CCN(C)CC2)ccc1Nc1nccc(-c2cn(C)c3cnccc23)n1` [AZ191], for which, in assay [1], the “absolute EC50 for viability” value was 2710 nM. In assay [2], the drug sensitivity score stood at 8.1.

On to `COc1cc(OC2CCN(C)CC2)ccc1Nc1ncc2c(n1)n(C1CCCC1)c(=O)n2C` [AZ 3146], for which the “absolute EC50 for viability” value in assay [1] was more than 10000 nM. In assay [2], the drug sensitivity score came to 2.9.

On to `CN(C)CCCOc1ccc(-c2ccc3ncc4c(c3c2)n(C2CCOCC2)c(=O)n4C)cn1` [AZD0156], for which the “absolute EC50 for viability” value in assay [1] is more than 1000 nM. The drug sensitivity score in assay [2] came to 1.9.

With `N[C@@H]1CCCN(c2c(/C=C3\SC(=O)NC3=O)cccc2-c2ccccc2)C1` [AZD1208], the “absolute EC50 for viability” value in assay [1] was more than 10000 nM. The drug sensitivity score in assay [2] was 0.5.

For `Cc1cc(Nc2nc(N[C@@H](C)c3ncc(F)cn3)ncc2Cl)[nH]n1` [AZD1480], the “absolute EC50 for viability” value in assay [1] was more than 1000 nM. The same compound gave a drug sensitivity score in assay [2] of 0.6.
